Experimental data taken from patent publication US20260102502A1, “C[…] COMPOSITIONS FOR TARGETED […]” (priority 2022, published 2026).

Experiment: water solubility of free drug and dendrimer-drug conjugates

CCCCCCC(C)(C)c1cc(OC)c([C@@H]2C=C(CO)[C@@H]3C[C@H]2C3(C)C)c(OC)c1 [Hu308]
Water Solubility Free drug* (free, unconjugated drug of GD-Hu308 (Table 4)): <0.1 mg/mL | solubility (water): < 100 µg/mL
